Assay results from PubChem BioAssay AID1963834 (Molecular Pharmacology Branch, DTP, NCI, 2024).

Tested on: 873145-292-R-J1-PDC complex spheroid viability
Experiment: Anticancer human tumor 873145-292-R-J1-PDC patient-derived renal clear cell carcinoma cell line growth inhibition [POLQ]
Settings: for IC50: curve of first compound; for viability, T/C: stronger effect = lower value
Method in brief: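 Patient-derived tumour cells were co-cultured with HUVEC and mesenchymal stem cells as multicellular spheroids at 37 °C. They were treated with POLQ inhibitors (novobiocin, ART-558, RP6685) alone or combined with other agents. Top concentrations were at or near clinical Cmax (otherwise 10 microM; SN-38 at 1 microM), decreasing in half-log steps.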

[1] = second compound 0.0316 µM, first compound 0.0316 µM
[2] = second compound 0.0316 µM, first compound 0.1 µM
[3] = second compound 0.1 µM, first compound 0.0316 µM
[4] = second compound 0.1 µM, first compound 0.1 µM
[5] = second compound 0.316 µM, first compound 0.0316 µM
[6] = second compound 0.316 µM, first compound 0.1 µM
[7] = second compound 1 µM, first compound 0.0316 µM
[8] = second compound 1 µM, first compound 0.1 µM
[9] = second compound 3.16 µM, first compound 0.0316 µM
[10] = second compound 3.16 µM, first compound 0.1 µM
[11] = second compound 10 µM, first compound 0.0316 µM
[12] = second compound 10 µM, first compound 0.1 µM
[13] = second compound 0.0316 µM, first compound 0.316 µM
[14] = second compound 0.0316 µM, first compound 1 µM
[15] = second compound 0.0316 µM, first compound 3.16 µM
[16] = second compound 0.0316 µM, first compound 10 µM
[17] = second compound 0.1 µM, first compound 0.316 µM
[18] = second compound 0.1 µM, first compound 1 µM
[19] = second compound 0.1 µM, first compound 3.16 µM
[20] = second compound 0.1 µM, first compound 10 µM
[21] = second compound 0.316 µM, first compound 0.316 µM
[22] = second compound 0.316 µM, first compound 1 µM
[23] = second compound 0.316 µM, first compound 3.16 µM
[24] = second compound 0.316 µM, first compound 10 µM
[25] = second compound 1 µM, first compound 0.316 µM
[26] = second compound 1 µM, first compound 1 µM
[27] = second compound 1 µM, first compound 3.16 µM
[28] = second compound 1 µM, first compound 10 µM
[29] = second compound 3.16 µM, first compound 0.316 µM
[30] = second compound 3.16 µM, first compound 1 µM
[31] = second compound 3.16 µM, first compound 3.16 µM
[32] = second compound 3.16 µM, first compound 10 µM
[33] = second compound 10 µM, first compound 0.316 µM
[34] = second compound 10 µM, first compound 1 µM
[35] = second compound 10 µM, first compound 3.16 µM
[36] = second compound 10 µM, first compound 10 µM
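Note: spheroids exposed to compounds for 7 days before viability readout.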
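Throughout, for viability, T/C: luminescence signal used as surrogate for viable cell content; 100% = DMSO vehicle control viability.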

For `CC[C@@]1(O)C(=O)OCc2c1cc1n(c2=O)Cc2cc3c(CN(C)C)c(O)ccc3nc2-1` + Nc1ccc(C#CCN(C(=O)Cc2ncc(C(F)(F)F)cc2C(F)(F)F)c2ccc(F)cc2)nn1, the IC50 (second compound 0.0316 µM) was > 0.1 µM, the IC50 (second compound 0.1 µM) was > 0.1 µM and the IC50 (second compound 0.316 µM) was > 0.1 µM. For the same molecule, the IC50 (second compound 1 µM) was > 0.1 µM, the IC50 (second compound 3.16 µM) was > 0.1 µM and the IC50 (second compound 10 µM) was > 0.1 µM. The viability, T/C (second compound 0.0316 µM, first compound 0.000316 µM) was 109%, the viability, T/C (second compound 0.0316 µM, first compound 0.001 µM) was 116% and the viability, T/C (second compound 0.0316 µM, first compound 0.00316 µM) was 96.9%. It also gave a viability, T/C (second compound 0.0316 µM, first compound 0.01 µM) of 92%, a viability, T/C [1] of 95.8% and a viability, T/C [2] of 56.4%. It also gave a viability, T/C (second compound 0.1 µM, first compound 0.000316 µM) of 112%, a viability, T/C (second compound 0.1 µM, first compound 0.001 µM) of 107% and a viability, T/C (second compound 0.1 µM, first compound 0.00316 µM) of 107%. It also gave a viability, T/C (second compound 0.1 µM, first compound 0.01 µM) of 107%, a viability, T/C [3] of 99.3% and a viability, T/C [4] of 52.7%. For the same molecule, the viability, T/C (second compound 0.316 µM, first compound 0.000316 µM) was 104%, the viability, T/C (second compound 0.316 µM, first compound 0.001 µM) was 105% and the viability, T/C (second compound 0.316 µM, first compound 0.00316 µM) was 92%. It also gave a viability, T/C (second compound 0.316 µM, first compound 0.01 µM) of 111%, a viability, T/C [5] of 95.5% and a viability, T/C [6] of 53.4%. For the same molecule, the viability, T/C (second compound 1 µM, first compound 0.000316 µM) was 115%, the viability, T/C (second compound 1 µM, first compound 0.001 µM) was 99.2% and the viability, T/C (second compound 1 µM, first compound 0.00316 µM) was 98.6%. For the same molecule, the viability, T/C (second compound 1 µM, first compound 0.01 µM) was 91%, the viability, T/C [7] was 106% and the viability, T/C [8] was 59.6%. It also gave a viability, T/C (second compound 3.16 µM, first compound 0.000316 µM) of 114%, a viability, T/C (second compound 3.16 µM, first compound 0.001 µM) of 112% and a viability, T/C (second compound 3.16 µM, first compound 0.00316 µM) of 112%. For the same molecule, the viability, T/C (second compound 3.16 µM, first compound 0.01 µM) was 102%, the viability, T/C [9] was 93.5% and the viability, T/C [10] was 63.9%. For the same molecule, the viability, T/C (second compound 10 µM, first compound 0.000316 µM) was 109%, the viability, T/C (second compound 10 µM, first compound 0.001 µM) was 111% and the viability, T/C (second compound 10 µM, first compound 0.00316 µM) was 124%. For the same molecule, the viability, T/C (second compound 10 µM, first compound 0.01 µM) was 119%, the viability, T/C [11] was 103% and the viability, T/C [12] was 63.2%.

For `COc1cc(C2c3cc4c(cc3C(OC3OC5COC(C)OC5C(O)C3O)C3COC(=O)C23)OCO4)cc(OC)c1O` (stereo unspecified) + Nc1ccc(C#CCN(C(=O)Cc2ncc(C(F)(F)F)cc2C(F)(F)F)c2ccc(F)cc2)nn1, the IC50 (second compound 0.0316 µM) was > 10 µM, the IC50 (second compound 0.1 µM) was > 10 µM and the IC50 (second compound 0.316 µM) was > 10 µM. For the same molecule, the IC50 (second compound 1 µM) was > 10 µM, the IC50 (second compound 3.16 µM) was > 10 µM and the IC50 (second compound 10 µM) was > 10 µM. The viability, T/C [1] was 107%, the viability, T/C [2] was 104% and the viability, T/C [13] was 105%. It also gave a viability, T/C [14] of 95.3%, a viability, T/C [15] of 82.3% and a viability, T/C [16] of 68%. It also gave a viability, T/C [3] of 107%, a viability, T/C [4] of 118% and a viability, T/C [17] of 97.7%. The viability, T/C [18] was 88.6%, the viability, T/C [19] was 83.9% and the viability, T/C [20] was 58.7%. The viability, T/C [5] was 103%, the viability, T/C [6] was 106% and the viability, T/C [21] was 109%. For the same molecule, the viability, T/C [22] was 98.8%, the viability, T/C [23] was 87.6% and the viability, T/C [24] was 62%. For the same molecule, the viability, T/C [7] was 99.5%, the viability, T/C [8] was 105% and the viability, T/C [25] was 107%. The viability, T/C [26] was 95.3%, the viability, T/C [27] was 87.4% and the viability, T/C [28] was 72.8%. The viability, T/C [9] was 112%, the viability, T/C [10] was 109% and the viability, T/C [29] was 109%. For the same molecule, the viability, T/C [30] was 93.3%, the viability, T/C [31] was 76.3% and the viability, T/C [32] was 58.8%. For the same molecule, the viability, T/C [11] was 103%, the viability, T/C [12] was 107% and the viability, T/C [33] was 110%. It also gave a viability, T/C [34] of 97.1%, a viability, T/C [35] of 78.5% and a viability, T/C [36] of 67.3%.

For `O=c1[nH]cc(F)c(=O)[nH]1` + Nc1ccc(C#CCN(C(=O)Cc2ncc(C(F)(F)F)cc2C(F)(F)F)c2ccc(F)cc2)nn1, the IC50 (second compound 0.0316 µM) was > 10 µM, the IC50 (second compound 0.1 µM) was > 10 µM and the IC50 (second compound 0.316 µM) was > 10 µM. The IC50 (second compound 1 µM) was > 10 µM, the IC50 (second compound 3.16 µM) was > 10 µM and the IC50 (second compound 10 µM) was > 10 µM. For the same molecule, the viability, T/C [1] was 109%, the viability, T/C [2] was 103% and the viability, T/C [13] was 101%. For the same molecule, the viability, T/C [14] was 91.1%, the viability, T/C [15] was 98.5% and the viability, T/C [16] was 103%. For the same molecule, the viability, T/C [3] was 104%, the viability, T/C [4] was 117% and the viability, T/C [17] was 101%. The viability, T/C [18] was 105%, the viability, T/C [19] was 98.3% and the viability, T/C [20] was 93.7%. For the same molecule, the viability, T/C [5] was 105%, the viability, T/C [6] was 105% and the viability, T/C [21] was 87.6%. It also gave a viability, T/C [22] of 98%, a viability, T/C [23] of 103% and a viability, T/C [24] of 97.7%. For the same molecule, the viability, T/C [7] was 113%, the viability, T/C [8] was 107% and the viability, T/C [25] was 102%. It also gave a viability, T/C [26] of 90.1%, a viability, T/C [27] of 114% and a viability, T/C [28] of 95.2%. The viability, T/C [9] was 118%, the viability, T/C [10] was 101% and the viability, T/C [29] was 112%. It also gave a viability, T/C [30] of 105%, a viability, T/C [31] of 105% and a viability, T/C [32] of 105%. It also gave a viability, T/C [11] of 107%, a viability, T/C [12] of 125% and a viability, T/C [33] of 132%. It also gave a viability, T/C [34] of 116%, a viability, T/C [35] of 105% and a viability, T/C [36] of 112%.
